Data set [1] is described as follows: N-acetyl-leucine metabolism in pooled human liver S9 fraction (LC-MS). Particulars: 1 µM initial concentration, 0-60 min. In kind it is in vitro ADME.
Description: (§3) V0 = Vmax. [S]/Km + [S], where V0 is initial velocity, [S] is substrate concentration, Vmax is maximum velocity and Km is substrate concentration at half Vmax. All fitting was performed using GraphPad Prism 8.4 software (GraphPad Software Inc). No weighting scheme was applied.
Data set [2] is described as follows: N-acetyl-leucine metabolism in pooled mouse liver S9 fraction (LC-MS). Type of data set: in vitro ADME. Particulars: 1 µM initial concentration, 0-60 min.
Description: as §3
The subject of another data set is LAT1. To be noted: read-out: Km LAT1; quoted in discussion, no reference given; cited from earlier work.
In data set [3] the target is T1, human MCT1 (SLC16A1) (Homo sapiens, UniProt P53985).
T1 construct: host or cells: MDCK-II
T1 sequence (P53985 1-500): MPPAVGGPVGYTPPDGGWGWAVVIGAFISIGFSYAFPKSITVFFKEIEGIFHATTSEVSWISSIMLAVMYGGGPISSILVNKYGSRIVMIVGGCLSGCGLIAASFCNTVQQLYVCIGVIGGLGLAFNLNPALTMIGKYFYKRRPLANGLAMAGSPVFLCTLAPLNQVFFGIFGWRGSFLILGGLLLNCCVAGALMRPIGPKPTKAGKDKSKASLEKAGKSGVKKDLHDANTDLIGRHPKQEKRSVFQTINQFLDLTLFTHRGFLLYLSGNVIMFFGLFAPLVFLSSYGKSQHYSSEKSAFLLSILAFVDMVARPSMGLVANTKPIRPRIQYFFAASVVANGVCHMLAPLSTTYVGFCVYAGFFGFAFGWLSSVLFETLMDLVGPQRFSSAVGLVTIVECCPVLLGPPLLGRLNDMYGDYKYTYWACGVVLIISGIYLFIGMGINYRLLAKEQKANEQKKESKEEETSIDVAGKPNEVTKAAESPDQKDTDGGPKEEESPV
The data set can be described thus: MCT1-mediated cellular uptake in transfected MDCK-II cells. Type of data set: cell-based. To be noted: 1 min, room temperature, Michaelis-Menten fit. As for the experimental part:
(§1) Transport studies with human PepT1 (SLC15A1), LAT1 (SLC7A5) and MCT1 (SLC16A1) were conducted in MDCK-II cells expressing the human transporter or control cells expressing a vector with Green Fluorescence Protein. Cells were transfected using a proprietary, transient transfection system (OPTI-EXPRESSION Technology, BioIVT). The results from the control cells were used to correct for substrate permeation by routes other than the transporter being investigated in the study. […] Specifically, Net Transporter Mediated Substrate Uptake (pmol/min/cm^2) = (Cellular accumulation in the presence of the transporter) − (Mean cellular accumulation in the absence of the transporter). MDCK-II cells were maintained in DMEM with low glucose and 10% FBS. Cells were used at passages up to 40 were seeded at 60,000 ± 10,000 cells/well on 96-well plates approximately 24 h before transfection, and transport assays were performed approximately 48 h after transfection. Transport studies in MDCK-II cells were conducted in 96-well insert plates with permeable membrane (0.4 µm) and receiver tray (Millipore MultiScreen Filter 96-well).
(§2) Transport studies with PepT1 were conducted in 96-well cell culture plate with wells containing a monolayer of MDCK-II cells grown on a permeable support and a corresponding 96-well receiver tray. Cell plates are maintained at 37 °C in 5% CO2 atmosphere prior to initiation of the transport experiment. Pre-incubation was conducted in HBSS, pH 7.4. The transport experiments were conducted in HBSS with Bis–Tris, pH 5.5, without phenol red. Both pre-incubation and incubation were conducted at 37 °C. All final assay solutions of probe substrate, reference inhibitor or test article contain 0.5% (v/v) DMSO (vehicle control). The culture plate insert […] was washed with warm HBSS three times and then blotted dry. The culture plate wells […] were washed with warm HBSS three times. […] Then a 30-µL sample was taken and mixed with 200 µL of scintillation fluid and scintillation counted (1450 Microbeta, Perkin-Elmer). […]

The target in data set [4] is T1, human MCT1 (SLC16A1). The data set can be described thus: Inhibition of MCT1 uptake of probe substrate 2-thiophene glyoxylate in MDCK-II cells. Type of data set: cell-based. As for the experimental part: as §1
as §2, with “times. 100 µL of 37 °C HBSS pH 7.4 pre-incubation buffer to the apical compartment as follows: for the probe substrate transport assay, the HBSS contains vehicle; for the reference inhibition assay, the HBSS contains the reference inhibitor at the required concentration; for the test article assays, the HBSS in each well contains test compound at the specified concentration. The plates were incubated at 37 °C with orbital shaking at approximately 60 rpm for the pre-incubation (30 min), aspirated and then 100 µL of the experimental buffer was added.” for “times.”

Substrate in data set [5]: CC(=O)N[C@@H](CC(C)C)C(=O)O
Description: cells, lysate or membranes. Particulars: Michaelis-Menten fit.

The term Km denotes the substrate concentration at which the rate is half of its maximum. By Ki is commonly meant the equilibrium dissociation constant of an inhibitor or competing ligand from its target. Broadly, the IC50 is the concentration that inhibits the measured activity by half. A lower IC50 goes with greater potency.

Regarding `[2H]C([2H])([2H])C([2H])(C([2H])([2H])[2H])C([2H])([2H])C([2H])(NC(C)=O)C(=O)O` (racemic) [N-acetyl-DL-[^2H10]leucine], the “disappearance: asymptote as % of the initial concentration, human liver S9” value in data set [1] was approximately 50%. Moreover, the “disappearance: asymptote as % of the initial concentration, mouse liver S9” value in data set [2] is on record as approximately 50%.
For `CC(C)C[C@H](N)C(=O)O` [L-leucine], in the data set with LAT1, the Km is 200 µM.
Consider `CC(=O)N[C@H](CC(C)C)C(=O)O` [N-acetyl-D-leucine], for which, at human MCT1 (SLC16A1) [3], the Km was 1 mM and the “Vmax MCT1 uptake” value is reported as 80. For the same molecule, the Ki on human MCT1 (SLC16A1) [4] (Cheng-Prusoff equation from IC50, competitive inhibition assumed, read-out: affinity (Ki) MCT1) is 1.6 mM. Moreover, the IC50 against human MCT1 (SLC16A1) [4] (probe 2-thiophene glyoxylate 500 µM, positive control phloretin 500 µM) amounted to 11 mM.

B1: Human OAT3 (SLC22A8) (Homo sapiens) (protein)
chain: MTFSEILDRVGSMGHFQFLHVAILGLPILNMANHNLLQIFTAATPVHHCRPPHNASTGPWVLPMGPNGKPERCLRFVHPPNASLPNDTQRAMEPCLDGWVYNSTKDSIVTEWDLVCNSNKLKEMAQSIFMAGILIGGLVLGDLSDRFGRRPILTCSYLLLAASGSGAAFSPTFPIYMVFRFLCGFGISGITLSTVILNVEWVPTRMRAIMSTALGYCYTFGQFILPGLAYAIPQWRWLQLTVSIPFFVFFLSSWWTPESIRWLVLSGKSSKALKILRRVAVFNGKKEEGERLSLEELKLNLQKEISLAKAKYTASDLFRIPMLRRMTFCLSLAWFATGFAYYSLAMGVEEFGVNLYILQIIFGGVDVPAKFITILSLSYLGRHTTQAAALLLAGGAILALTFVPLDLQTVRTVLAVFGKGCLSSSFSCLFLYTSELYPTVIRQTGMGVSNLWTRVGSMVSPLVKITGEVQPFIPNIIYGITALLGGSAALFLPETLNQPLPETIEDLENWSLRAKKPKQEPEVEKASQRIPLQPHGPGLGSS
Take B1: the Km in data set [5] (other: HEK-293 cells, pH 7.4) is on record as 7.8 mM.

B2: human MCT1 (SLC16A1) (Homo sapiens) (protein)
chain: T1 sequence (P53985 1-500)
Consider B2, for which the Km in data set [5] (other: MDCK-II cells, 1 min, room temperature) is on record as 3.0 mM.

B3: Human OAT1 (SLC22A6) (Homo sapiens) (protein)
chain: MAFNDLLQQVGGVGRFQQIQVTLVVLPLLLMASHNTLQNFTAAIPTHHCRPPADANLSKNGGLEVWLPRDRQGQPESCLRFTSPQWGLPFLNGTEANGTGATEPCTDGWIYDNSTFPSTIVTEWDLVCSHRALRQLAQSLYMVGVLLGAMVFGYLADRLGRRKVLILNYLQTAVSGTCAAFAPNFPIYCAFRLLSGMALAGISLNCMTLNVEWMPIHTRACVGTLIGYVYSLGQFLLAGVAYAVPHWRHLQLLVSAPFFAFFIYSWFFIESARWHSSSGRLDLTLRALQRVARINGKREEGAKLSMEVLRASLQKELTMGKGQASAMELLRCPTLRHLFLCLSMLWFATSFAYYGLVMDLQGFGVSIYLIQVIFGAVDLPAKLVGFLVINSLGRRPAQMAALLLAGICILLNGVIPQDQSIVRTSLAVLGKGCLAASFNCIFLYTGELYPTMIRQTGMGMGSTMARVGSIVSPLVSMTAELYPSMPLFIYGAVPVAASAVTVLLPETLGQPLPDTVQDLESRWAPTQKEAGIYPRKGKQTRQQQEHQKYMVPLQASAQEKNGL
For B3, the Km in data set [5] (other: HEK-293 cells, pH 7.4) was 11 mM.

Values taken from paper PMC8338929, “Acetylation turns leucine into a drug by membrane transporter switching” (Scientific Reports, 2021).
